Measured values taken from patent US8080657B2, “Compounds of reverse turn mimetics and the use thereof” (Choongwae Pharma Corporation, priority 2008, dated 2011).
Read-outs that look alike come from different tables or passages of the source.

Test system: Wnt signaling
Assay: TopFlash reporter gene bioassay in SW480 cells
Assay type: cell-based
Conditions: Homo sapiens
[1] = SW480, TopFlash reporter gene assay, inhibition of Wnt signaling, read-out: RGA, IC50 (μM) TopF
[2] = SW480, read-out: RGA, IC50 (μM) TopF

Row | Compound | IC50 [1] [µM] | other results
1 | C=CCN1CC(=O)N2[C@@H](Cc3ccc4[nH]ncc4c3)C(=O)N(Cc3cccc4scnc34)C[C@@H]2N1C(=O)NCc1ccccc1 (racemic) [compound 237] | 46.7 ± 6.13 | 
2 | C=CCN1CC(=O)N2[C@@H](Cc3ccc(O)cc3)C(=O)N(Cc3cccc(Br)c3)C[C@@H]2N1C(=O)NCc1ccccc1 [Compound F] |  | IC50 (SW480, 24 h, SW480 cells, 24 hours treatment, luciferase assay, read-out: IC50 for SW480 cells, TopFlash reporter gene bioassay): 0.73 ± 0.08 µM
3 | C=CCN1CC(=O)N2[C@@H](Cc3ccc(O)cc3)C(=O)N(Cc3cccc(C(=O)NCCC)c3)C[C@@H]2N1C(=O)NCc1ccccc1 [compound 9] |  | IC50 [2]: 0.3 ± 0.02 µM
4 | C=CCN1CC(=O)N2[C@@H](Cc3ccc(OP(=O)(O)O)cc3)C(=O)N(Cc3cccc4c3oc3ccccc34)C[C@@H]2N1C(=O)NCc1ccccc1 [compound 13] |  | IC50 [2]: 0.36 ± 0.13 µM
5 | C=CCN1CC(=O)N2C(Cc3ccc(OP(=O)(O)O)cc3)C(=O)N(Cc3cccc4sc(N)nc34)C[C@@H]2N1C(=O)NCc1ccccc1 (stereo partly shown) [compound 14] |  | IC50 [2]: 0.37 ± 0.07 µM
6 | C=CCN1CC(=O)N2[C@@H](Cc3ccc(OP(=O)(O)O)cc3)C(=O)N(Cc3cccc4c(-c5ccccc5)c[nH]c34)C[C@@H]2N1C(=O)NCc1ccccc1 [compound 22] |  | IC50 [2]: 0.45 ± 0.29 µM
7 | C=CCN1CC(=O)N2[C@@H](Cc3ccc(OP(=O)(O)O)cc3)C(=O)N(Cc3csc4cc(N)ccc34)C[C@@H]2N1C(=O)NCc1ccccc1 [compound 24] |  | IC50 [2]: 0.48 ± 0.11 µM
8 | C=CCN1CC(=O)N2[C@@H](Cc3ccc(OP(=O)(O)O)cc3)C(=O)N(Cc3cccc(OC)c3OC)C[C@@H]2N1C(=O)NCc1ccccc1 [compound 31] |  | IC50 [2]: 0.54 ± 0.08 µM
9 | C=CCN1CC(=O)N2[C@@H](Cc3ccc(OP(=O)(O)O)cc3)C(=O)N(Cc3csc4ccccc34)C[C@@H]2N1C(=O)NCc1ccccc1 [compound 35] |  | IC50 [2]: 0.59 ± 0.066 µM
10 | C=CCN1CC(=O)N2[C@@H](Cc3ccc(O)cc3)C(=O)N(Cc3cccc4c3ncn4C(=O)CN)C[C@@H]2N1C(=O)NCc1ccccc1 [compound 37] | 0.6 ± 0.13 | 
11 | C=CCN1CC(=O)N2[C@@H](Cc3ccc(O)cc3)C(=O)N(Cc3cccc(C(=O)NC4CCCCC4)c3)C[C@@H]2N1C(=O)NCc1ccccc1 [compound 38] | 0.61 ± 0.09 | 
12 | C=CCN1CC(=O)N2[C@@H](Cc3ccc(O)cc3)C(=O)N(Cc3cccc(-c4ccc(N)nc4)c3)C[C@@H]2N1C(=O)NCc1ccccc1 [compound 40] | 0.63 ± 0.06 | 
13 | C=CCN1CC(=O)N2[C@@H](Cc3ccc(O)cc3)C(=O)N(Cc3ccc(F)c4scnc34)C[C@@H]2N1C(=O)NCc1ccc(Cl)c(Cl)c1 [compound 41] | 0.63 ± 0.09 | 
14 | C=CCN1CC(=O)N2[C@@H](Cc3ccc(OP(=O)(O)O)cc3)C(=O)N(Cc3ccccc3SC)C[C@@H]2N1C(=O)NCc1ccccc1 [compound 42] |  | IC50 [2]: 0.66 ± 0.0079 µM
15 | C=CCN1CC(=O)N2[C@@H](Cc3ccc(O)cc3)C(=O)N(Cc3csc4ccc(Cl)cc34)C[C@@H]2N1C(=O)NCc1ccccc1 [compound 43] | 0.66 ± 0.06 | 
16 | C#Cc1ccc(CNC(=O)N2[C@H]3CN(Cc4ccc(F)c5scnc45)C(=O)[C@H](Cc4ccc(O)cc4)N3C(=O)CN2CC=C)cc1 [compound 44] | 0.67 ± 0.05 | 

More lines, in order of falling IC50 [1], values ahead:

Row | IC50 [1] [µM] | Compound | other results
17 | 0.58 ± 0.132 | C=CCN1CC(=O)N2[C@@H](Cc3ccc(O)cc3)C(=O)N(Cc3cccc(-c4ccncc4)c3)C[C@@H]2N1C(=O)NCc1ccccc1 [compound 34] | 
18 | 0.56 ± 0.07 | C=CCN1CC(=O)N2[C@@H](Cc3ccc(O)cc3)C(=O)N(Cc3csc4ccc([N+](=O)[O-])cc34)C[C@@H]2N1C(=O)NCc1ccccc1 [compound 32] | 
19 | 0.56 ± 0.44 | C=CCN1CC(=O)N2[C@@H](Cc3ccc(O)cc3)C(=O)N(Cc3cccc(-c4ccc(F)nc4)c3)C[C@@H]2N1C(=O)NCc1ccccc1 [compound 33] | 
20 | 0.54 ± 0.06 | C=CCN1CC(=O)N2[C@@H](Cc3ccc(O)cc3)C(=O)N(Cc3ccccc3[N+](=O)[O-])C[C@@H]2N1C(=O)NCc1ccccc1 [compound 30] | 
21 | 0.53 ± 0.24 | C=CCN1CC(=O)N2[C@@H](Cc3ccc(OS(N)(=O)=O)cc3)C(=O)N(Cc3cccc4c(C(C)=O)c[nH]c34)C[C@@H]2N1C(=O)NCc1ccccc1 [compound 29] | 
22 | 0.52 ± 0.04 | C=CCN1CC(=O)N2[C@@H](Cc3ccc(O)cc3)C(=O)N(Cc3cccc(C(=O)NCC4CC4)c3)C[C@@H]2N1C(=O)NCc1ccccc1 [compound 25] | 
23 | 0.52 ± 0.048 | C=CCN1CC(=O)N2[C@@H](Cc3ccc(O)cc3)C(=O)N(Cc3cccc4c3oc3ccccc34)C[C@@H]2N1C(=O)NCc1ccccc1 [compound 26] | 
24 | 0.52 ± 0.09 | C=CCN1CC(=O)N2[C@@H](Cc3ccc(O)cc3)C(=O)N(Cc3cccc4c(-c5ccccc5)cn(S(=O)(=O)c5ccccc5)c34)C[C@@H]2N1C(=O)NCc1ccccc1 [compound 27] | 
25 | 0.52 ± 0.06 | C=CCN1CC(=O)N2[C@@H](Cc3ccc(O)cc3)C(=O)N(Cc3ccc(F)c(-c4cccnc4)c3)C[C@@H]2N1C(=O)NCc1ccccc1 [compound 28] | 
26 | 0.45 ± 0.05 | C=CCN1CC(=O)N2[C@@H](Cc3ccc(O)cc3)C(=O)N(Cc3csc4ccc(F)cc34)C[C@@H]2N1C(=O)NCc1ccccc1 [compound 21] | 
27 | 0.43 ± 0.08 | C=CCN1CC(=O)N2[C@@H](Cc3ccc(O)cc3)C(=O)N(Cc3cccc4c(Cl)c[nH]c34)C[C@@H]2N1C(=O)NCc1ccccc1 [compound 19] | 
28 | 0.43 ± 0.1 | C=CCN1CC(=O)N2[C@@H](Cc3ccc(O)cc3)C(=O)N(Cc3cccc4ccn(S(=O)(=O)c5ccc(Cl)cc5)c34)C[C@@H]2N1C(=O)NCc1ccccc1 [compound 20] | 
29 | 0.42 ± 0.04 | C=CCN1CC(=O)N2[C@@H](Cc3ccc(O)cc3)C(=O)N(Cc3ccccc3SC)C[C@@H]2N1C(=O)NCc1ccccc1 [compound 17] | 
30 | 0.42 ± 0.12 | C=CCN1CC(=O)N2[C@@H](Cc3ccc(O)cc3)C(=O)N(Cc3cccc(-c4cccc(NC(C)=O)c4)c3)C[C@@H]2N1C(=O)NCc1ccccc1 [compound 18] | 
31 | 0.39 ± 0.05 | C=CCN1CC(=O)N2[C@@H](Cc3ccc(O)cc3)C(=O)N(Cc3ccc(F)c(Br)c3)C[C@@H]2N1C(=O)NCc1ccccc1 [compound 16] | 
32 | 0.34 ± 0.12 | C=CCN1CC(=O)N2[C@@H](Cc3ccc(O)cc3)C(=O)N(Cc3cccc(-c4cccnc4)c3)C[C@@H]2N1C(=O)NCc1ccccc1 [compound 12] | 
33 | 0.31 ± 0.09 | C=CCN1CC(=O)N2[C@@H](Cc3ccc(O)cc3)C(=O)N(Cc3cccc4c(C#N)cn(S(=O)(=O)c5ccccc5)c34)C[C@@H]2N1C(=O)NCc1ccccc1 [compound 11] | 
34 | 0.3 ± 0.06 | C=CCN1CC(=O)N2[C@@H](Cc3ccc(O)cc3)C(=O)N(Cc3cccc4c(-c5ccccc5)c[nH]c34)C[C@@H]2N1C(=O)NCc1ccccc1 [compound 10] | 
35 | 0.26 ± 0.08 | C=CCN1CC(=O)N2[C@@H](Cc3ccc(O)cc3)C(=O)N(Cc3cccc(-c4cccnc4F)c3)C[C@@H]2N1C(=O)NCc1ccccc1 [compound 7] | 
36 | 0.18 ± 0.076 | C=CCN1CC(=O)N2[C@@H](Cc3ccc(O)cc3)C(=O)N(Cc3cccc4c(C(C)=O)cn(S(=O)(=O)c5ccc(Cl)cc5)c34)C[C@@H]2N1C(=O)NCc1ccccc1 [compound 6] | 
37 | 0.14 ± 0.025 | C=CCN1CC(=O)N2[C@@H](Cc3ccc(O)cc3)C(=O)N(Cc3cccc4c(C(=O)C5CC5)c[nH]c34)C[C@@H]2N1C(=O)NCc1ccccc1 [compound 4] | 
38 | 0.098 ± 0.014 | C=CCN1CC(=O)N2[C@@H](Cc3ccc(O)cc3)C(=O)N(Cc3cccc4c(C(C)=O)c[nH]c34)C[C@@H]2N1C(=O)NCc1ccccc1 [compound 3] | 
39 | 0.084 ± 0.016 | C=CCN1CC(=O)N2[C@@H](Cc3ccc(O)cc3)C(=O)N(Cc3cccc4c(C(C)=O)cn(S(=O)(=O)c5ccc(C)cc5)c34)C[C@@H]2N1C(=O)NCc1ccccc1 [compound 2] | 
40 | 0.081 ± 0.0086 | C=CCN1CC(=O)N2[C@@H](Cc3ccc(O)cc3)C(=O)N(Cc3cccc4c(C(=O)C5CC5)cn(S(=O)(=O)c5ccc(C)cc5)c34)C[C@@H]2N1C(=O)NCc1ccccc1 [compound 1] | 
